Laboratory results as given in patent US10827753B2, “Compositions and methods for controlling nematodes” (Monsanto Technology LLC, priority 2007, dated 2020).
Marks after values point to notes of the source that are not given here.

Tests used:
[1] = tested on: soybean cyst nematode (SCN); test: SCN greenhouse sand assay on soybean plants; assay type: in vivo, Heterodera glycines
Text: Soybeans seeds are planted in 100% sand in two inch square plastic pots.
Chemical treatment is done when the soybeans show the first trifoliate beginning to emerge about 10 to 12 days after planting. At least four hours after chemical application the nematode soybean cyst nematode (SCN) eggs are applied and 28 days after the egg inoculation the test is harvested.
One milligram of chemistry per four pots is equal to one kilogram per hectare of chemical. A standard test uses four replications. For rates above 2 kg/ha, the desired amount of chemical is weighed into a 30 ml vial (example: 8 kg/ha rate=8 mg chemical in 30 ml vial). The chemical is dissolved in 2 ml of appropriate solvent, generally acetone. For rates below 2 kg/ha, 2 milligrams of chemistry is weighed into the vial and dissolved in 2 ml of the solvent. The appropriate amount of chemical concentrate is then pipetted into a separate 30 ml vial and solvent is added to bring the volume to 2 ml (example 0.5 kg/ha=0.5 ml of concentrate+1.5 ml solvent). Each dissolved concentrate is then brought to a total of 20 milliliters using 0.05% Triton X 100 surfactant solution.
Pots to be treated are moist but not saturated. To each of four pots, five milliliters of the appropriate chemical solution is pipetted to the media surface making sure to avoid contact with the base of the plant. Immediately following chemical application, using a mist nozzle, the pot surface is wetted sufficiently to saturate the pot watering in the chemistry. The chemical application is done in the morning.
Nematode eggs, either SCN or RKN, are added to distilled water to create a concentration of 1000 vermiform eggs […]. At least four hours after chemical treatment the eggs are applied to the treated pots plus non-treated check plants. A small hole about 1 cm deep is punched into the pot surface. One milliliter of the nematode egg slurry is pipetted into the hole. Immediately afterwards the hole is gently covered. Watering of the test plants is then restricted to only water as needed to prevent wilt for a period of 24 hours. After the 24 hour restricted watering, normal sub-irrigation watering is done for the duration of the test.

mice = conditions: cited from earlier work
Meloidogyne incognita = test: Summer field evaluation of pre-plant incorporated compounds on squash; assay type: in vivo
Outline: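 PPI simulation: compound in acetone/Triton X-100 and water mixed into 80% sand/20% silt loam with chopped galled tomato roots, filling top 15 cm of 6 replicate field plots. M. incognita eggs/larvae (100 k per plot) injected 5 cm deep; three-week-old squash cv. Liberator III planted 4 days after treatment.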

[2] = tested on: Caenorhabditis elegans ced-3(n717) and ced-4(N1162) mutants; test: Susceptibility of apoptosis-defective C. elegans mutants on NGM agar plates; assay type: in vivo; conditions: 10 μg/ml on NGM agar plates

With `CCOP(=O)(NC(C)C)Oc1ccc(SC)c(C)c1` (stereo not drawn) [Fenamiphos, fenamiphos, reference compound] the “percent control (cyst number reduction) relative to the control blank treatment” value ([1]; 0.1 kg/ha, test d) was 5^d percent, the “percent control (cyst number reduction) relative to the control blank treatment” value ([1]; 0.25 kg/ha, test d) was 26^d percent and the “percent control (cyst number reduction) relative to the control blank treatment” value ([1]; 1 kg/ha, test a) was 98^a percent. The “percent control (cyst number reduction) relative to the control blank treatment” value ([1]; 1 kg/ha, test b) was 98^b percent, the “percent control (cyst number reduction) relative to the control blank treatment” value ([1]; 1 kg/ha, test c) was 94^c percent and the “oral LD50 in mice” value (mice) was 22.7 mg/kg.
For `Cc1cc(Cl)ccc1-c1noc(-c2ccco2)n1` [compound 5823], the “0-3 vigor 16 DAP” value (Meloidogyne incognita; 4 kg (kg/ha) PPI, squash) was 3.0, the “0-3 vigor 21 DAP” value (Meloidogyne incognita; 4 kg (kg/ha) PPI, squash) was 3.0 and the “feeder root (3 = ave) 31 DAP” value (Meloidogyne incognita; 4 kg (kg/ha) PPI, squash) was 2.7. For the same molecule, the “gall % 31 DAP” value (Meloidogyne incognita; 4 kg (kg/ha) PPI, squash) was 3%, the “root wgt (g) 31 DAP” value (Meloidogyne incognita; 4 kg (kg/ha) PPI, squash) was 22.6 g and the “top wgt (lbs) 31 DAP” value (Meloidogyne incognita; 4 kg (kg/ha) PPI, squash) was 1.45 lbs. The “total fruit (lbs)” value (Meloidogyne incognita; 4 kg (kg/ha) PPI, squash) was 1.44 lbs, the “control of M. incognita (in words)” value (Meloidogyne incognita; PPI application at 4 kg/ha) was “excellent control” and the “difference in susceptibility between wild-type (N2 Bristol) and ced-3 and ced-4 mutants, including time to mortality” value [2] was “No observable phenotypic difference in susceptibility”.
